The results in this text go back to patent publication US10596212B2, “Mangifera indica as a Sirtuin 1 activating agent” (Vital Solutions Swiss AG, priority 2014, dated 2020).

The target of this experiment is T1, human recombinant SIRT1 (Homo sapiens, UniProt Q96EB6).
T1 construct: purchased Cayman Chemical
T1 sequence (Q96EB6 1-747): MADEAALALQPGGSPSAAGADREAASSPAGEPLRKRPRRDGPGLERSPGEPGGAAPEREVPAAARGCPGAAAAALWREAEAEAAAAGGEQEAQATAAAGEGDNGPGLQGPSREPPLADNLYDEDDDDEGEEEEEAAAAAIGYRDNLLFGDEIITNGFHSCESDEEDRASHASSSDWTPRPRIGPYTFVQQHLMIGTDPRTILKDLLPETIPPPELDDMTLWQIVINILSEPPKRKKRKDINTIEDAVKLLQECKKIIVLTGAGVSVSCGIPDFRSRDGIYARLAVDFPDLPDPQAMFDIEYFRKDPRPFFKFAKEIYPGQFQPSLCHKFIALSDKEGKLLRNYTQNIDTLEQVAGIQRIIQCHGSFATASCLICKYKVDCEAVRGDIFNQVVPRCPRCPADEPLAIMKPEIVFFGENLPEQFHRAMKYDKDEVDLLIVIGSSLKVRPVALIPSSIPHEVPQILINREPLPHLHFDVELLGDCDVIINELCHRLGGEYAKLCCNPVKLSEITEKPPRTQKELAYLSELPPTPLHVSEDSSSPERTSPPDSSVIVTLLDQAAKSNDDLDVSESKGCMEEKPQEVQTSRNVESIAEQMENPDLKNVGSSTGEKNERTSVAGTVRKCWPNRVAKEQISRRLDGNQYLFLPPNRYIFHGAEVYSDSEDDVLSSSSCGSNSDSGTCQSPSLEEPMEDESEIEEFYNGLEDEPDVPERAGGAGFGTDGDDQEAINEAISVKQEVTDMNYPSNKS
In words: SIRT1 Direct Fluorescent Screening Assay (Cayman Chemical), SIRT1 activation. The class given is biochemical. The conditions noted are these: positive control, working concentration 1 mM, final assay concentration 32.5 μg/ml. Here is the method:
The assay was performed using SIRT1 Direct Fluorescent Screening Assay kit, (Cayman Chemical). In the assay resveratrol was used as a positive comparative control in the working concentration of 1 mM, or 228 μg/ml corresponding to a final assay concentration of 32.5 μg/ml.
Cayman's SIRT1 Direct Fluorescent Screening Assay Kit is fluorescence-based method for screening SIRT1 inhibitors or activators. In the first step, the substrate is incubated with human recombinant SIRT1 along with its co-substrate NAD+. Deacetylation sensitizes the substrate such that treatment with the developer in the second step releases a fluorescent product. The fluorophore is analyzed using an excitation wavelength of 350-360 nm and an emission wavelength of 450-465 nm.
The activation is calculated as % activation=(Sample−Initial Activity)/Initial Activity*100.

Regarding `Oc1ccc(C=Cc2cc(O)cc(O)c2)cc1` [resveratrol], the “activation of SIRT1” value was found to be 37.5%.
